Test results taken from patent US20080242688A1, “Method 741” (ASTRAZENECA AB, priority 2007, published 2008).
Several values for one entry are separate records, joined by “and”; a condition that tells them apart may be missing. Identical values can stand only once. Like-named read-outs stand apart in the source and are kept apart here.

What was measured:
Multiple dose PK/TK, dog = format: in vivo; design: AUC/dose: unit not given beside the values; conditions: for Cmax / Tmax / AUC / AUC at 7 day / Cmax at 7 day / Tmax at 7 day / AUC at 35 day / Cmax at 35 day / Tmax at 35 day: dog, in vivo, po
Excerpt: (§1) This section provides a summary of the pharmacokinetic and metabolism properties of AZD0328 derived from in vivo studies. […] The derived PK/TK parameters from these studies are presented in Table 4 for single dose studies (DMR4, 0619LR, 20030191PCR, DMO16, DMB10, DMW12, 50190, 0190DD and 03.330/1), and are presented in Table 5 multiple dose PK/TK studies (DMR4, 0612AR, DMB15, 50190, 0190DD and 0295AD).

[1] = Single dose PK/TK, ferret; conditions: in vivo
Excerpt: as §1

[2] = both sexes, 34.6 mg/kg, dog 2F+2M, 0190DD, 34.6 mg/kg (160 μmol/kg) split in two 6 h apart, solution fasted, day 1
[3] = both sexes, 34.6 mg/kg, dog 2F+2M, 0190DD, 34.6 mg/kg (160 μmol/kg) split in two 6 h apart, solution fasted, day 7
[4] = both sexes, 138 mg/kg, dog 2F+2M, 0190DD, 138 mg/kg (640 μmol/kg) split in two 6 h apart, capsules fed, day 1
[5] = both sexes, 138 mg/kg, dog 2F+2M, 0190DD, 138 mg/kg (640 μmol/kg) split in two 6 h apart, capsules fed, day 7
[6] = female, Beagle, 8.65 mg/kg, dog 3F, 0295AD, 8.65 mg/kg (40 μmol/kg) split in two 6 h apart, capsules fed, day 7
[7] = female, Beagle, 8.65 mg/kg, dog 3F, 0295AD, 8.65 mg/kg (40 μmol/kg) split in two 6 h apart, capsules fed, day 35
[8] = female, Beagle, 17.3 mg/kg, dog 3F, 0295AD, 17.3 mg/kg (80 μmol/kg) split in two 6 h apart, capsules fed, day 7
[9] = female, Beagle, 17.3 mg/kg, dog 3F, 0295AD, 17.3 mg/kg (80 μmol/kg) split in two 6 h apart, capsules fed, day 35
[10] = female, Beagle, 26 mg/kg, dog 6F, 0295AD, 26.0 mg/kg (120 μmol/kg) split into 17.3 and 8.7 mg/kg 6 h apart, capsules fed, day 35
[11] = female, Beagle, 34.6 mg/kg, dog 6F, 0295AD, 34.6 mg/kg (160 μmol/kg) split in two 6 h apart, capsules fed, day 7
[12] = male, Beagle, 8.65 mg/kg, dog 3M, 0295AD, 8.65 mg/kg (40 μmol/kg) split in two 6 h apart, capsules fed, day 7
[13] = male, Beagle, 8.65 mg/kg, dog 3M, 0295AD, 8.65 mg/kg (40 μmol/kg) split in two 6 h apart, capsules fed, day 35
[14] = male, Beagle, 17.3 mg/kg, dog 3M, 0295AD, 17.3 mg/kg (80 μmol/kg) split in two 6 h apart, capsules fed, day 7
[15] = male, Beagle, 17.3 mg/kg, dog 3M, 0295AD, 17.3 mg/kg (80 μmol/kg) split in two 6 h apart, capsules fed, day 35
[16] = male, Beagle, 26 mg/kg, dog 6M, 0295AD, 26.0 mg/kg (120 μmol/kg) split into 17.3 and 8.7 mg/kg 6 h apart, capsules fed, day 35
[17] = male, Beagle, 34.6 mg/kg, dog 6M, 0295AD, 34.6 mg/kg (160 μmol/kg) split in two 6 h apart, capsules fed, day 7
[18] = male, ferret 4M, DMO16, single oral 10 mg/kg (46 μmol/kg)

c1cnc2c(c1)C[C@@]1(CN3CCC1CC3)O2 [AZD0328, (R)-Spiro[1-azabicyclo[2.2.2]octane-3,2′(3′H)-furo[2,3-b]pyridine]]
Cmax (Multiple dose PK/TK, dog; [2]): 1130 ng/mL and 5.2 µM | Tmax (Multiple dose PK/TK, dog; [2]): 0.5 h | AUC (Multiple dose PK/TK, dog; [3]): 7200 ng·h/mL and 33.3 µM·h | Cmax (Multiple dose PK/TK, dog; [3]): 1560 ng/mL and 7.22 µM | Tmax (Multiple dose PK/TK, dog; [3]): 0.5 to 1 h | AUC (Multiple dose PK/TK, dog; [4]): 11900 ng·h/mL and 55 µM·h | Cmax (Multiple dose PK/TK, dog; [4]): 1520 ng/mL and 7.04 µM | Tmax (Multiple dose PK/TK, dog; [4]): 1 to 6 h | AUC (Multiple dose PK/TK, dog; [5]): 7160 ng·h/mL and 33.1 µM·h | Cmax (Multiple dose PK/TK, dog; [5]): 1360 ng/mL and 6.27 µM | Tmax (Multiple dose PK/TK, dog; [5]): 0.5 to 6 h | AUC/dose (Multiple dose PK/TK, dog; dog 2F+2M, 0190DD, 34.6 mg/kg (160 μmol/kg) split in two 6 h apart, capsules fasted, day 1): 0.128 ± 0.087 | AUC/dose (Multiple dose PK/TK, dog; dog 2F+2M, 0190DD, 34.6 mg/kg (160 μmol/kg) split in two 6 h apart, solution fasted, day 1): 0.141 ± 0.014 | AUC/dose (Multiple dose PK/TK, dog; dog 2F+2M, 0190DD, 34.6 mg/kg (160 μmol/kg) split in two 6 h apart, solution fasted, day 7): 0.208 ± 0.088 | AUC/dose (Multiple dose PK/TK, dog; dog 2F+2M, 0190DD, 138 mg/kg (640 μmol/kg) split in two 6 h apart, capsules fed, day 1): 0.0859 ± 0.0530 | AUC/dose (Multiple dose PK/TK, dog; dog 2F+2M, 0190DD, 138 mg/kg (640 μmol/kg) split in two 6 h apart, capsules fed, day 7): 0.0517 ± 0.0206 | AUC/dose (Multiple dose PK/TK, dog; dog 3F, 0295AD, 8.65 mg/kg (40 μmol/kg) split in two 6 h apart, capsules fed, day 7): 0.113 ± 0.038 | AUC/dose (Multiple dose PK/TK, dog; dog 3F, 0295AD, 8.65 mg/kg (40 μmol/kg) split in two 6 h apart, capsules fed, day 35): 0.107 ± 0.017 | AUC/dose (Multiple dose PK/TK, dog; dog 3F, 0295AD, 17.3 mg/kg (80 μmol/kg) split in two 6 h apart, capsules fed, day 7): 0.246 ± 0.092 | AUC/dose (Multiple dose PK/TK, dog; dog 3F, 0295AD, 17.3 mg/kg (80 μmol/kg) split in two 6 h apart, capsules fed, day 35): 0.233 ± 0.049 | AUC/dose (Multiple dose PK/TK, dog; dog 3M, 0295AD, 8.65 mg/kg (40 μmol/kg) split in two 6 h apart, capsules fed, day 7): 0.100 ± 0.051 | AUC/dose (Multiple dose PK/TK, dog; dog 3M, 0295AD, 8.65 mg/kg (40 μmol/kg) split in two 6 h apart, capsules fed, day 35): 0.145 ± 0.039 | AUC/dose (Multiple dose PK/TK, dog; dog 3M, 0295AD, 17.3 mg/kg (80 μmol/kg) split in two 6 h apart, capsules fed, day 7): 0.223 ± 0.047 | AUC/dose (Multiple dose PK/TK, dog; dog 3M, 0295AD, 17.3 mg/kg (80 μmol/kg) split in two 6 h apart, capsules fed, day 35): 0.196 ± 0.008 | AUC/dose (Multiple dose PK/TK, dog; dog 6F, 0295AD, 26.0 mg/kg (120 μmol/kg) split into 17.3 and 8.7 mg/kg 6 h apart, capsules fed, day 35): 0.133 ± 0.036 | AUC/dose (Multiple dose PK/TK, dog; dog 6M, 0295AD, 26.0 mg/kg (120 μmol/kg) split into 17.3 and 8.7 mg/kg 6 h apart, capsules fed, day 35): 0.174 ± 0.029 | AUC/dose (Multiple dose PK/TK, dog; dog 6M, 0295AD, 34.6 mg/kg (160 μmol/kg) split in two 6 h apart, capsules fed, day 7): 0.152 ± 0.075 | AUC (Multiple dose PK/TK, dog; [6]): 981 ng·h/mL and 4.53 µM·h | Cmax (Multiple dose PK/TK, dog; [6]): 302 ng/mL and 1.39 µM | Tmax (Multiple dose PK/TK, dog; [6]): 1 to 7 h | AUC (Multiple dose PK/TK, dog; [7]): 924 ng·h/mL and 4.27 µM·h | Cmax (Multiple dose PK/TK, dog; [7]): 270 ng/mL and 1.25 µM | Tmax (Multiple dose PK/TK, dog; [7]): 1 to 9 h | AUC at 7 day (Multiple dose PK/TK, dog; [8]): 2130 ng·h/mL and 9.83 µM·h | Cmax at 7 day (Multiple dose PK/TK, dog; [8]): 850 ng/mL and 3.93 µM | Tmax at 7 day (Multiple dose PK/TK, dog; [8]): 0.5 to 6.5 h | AUC at 35 day (Multiple dose PK/TK, dog; [9]): 2020 ng·h/mL and 9.33 µM·h | Cmax at 35 day (Multiple dose PK/TK, dog; [9]): 439 ng/mL and 2.03 µM | Tmax at 35 day (Multiple dose PK/TK, dog; [9]): 1 to 9 h | AUC (Multiple dose PK/TK, dog; [10]): 3460 ng·h/mL and 16 µM·h | Cmax (Multiple dose PK/TK, dog; [10]): 1190 ng/mL and 5.49 µM | Tmax (Multiple dose PK/TK, dog; [10]): 1 to 8.5 h | AUC (Multiple dose PK/TK, dog; [11]): 19.2 µM·h | AUC at 7 day (Multiple dose PK/TK, dog; [11]): 4160 ± 1990 ng·h/mL | Cmax (Multiple dose PK/TK, dog; [11]): 8.69 µM | Cmax at 7 day (Multiple dose PK/TK, dog; [11]): 1880 ± 1060 ng/mL | Tmax at 7 day (Multiple dose PK/TK, dog; [11]): 0.5 to 6.5 h | AUC at 7 day (Multiple dose PK/TK, dog; [12]): 868 ng·h/mL and 4 µM·h | Cmax at 7 day (Multiple dose PK/TK, dog; [12]): 286 ng/mL and 1.32 µM | Tmax at 7 day (Multiple dose PK/TK, dog; [12]): 0.5 to 7 h | AUC at 35 day (Multiple dose PK/TK, dog; [13]): 1250 ng·h/mL and 5.79 µM·h | Cmax at 35 day (Multiple dose PK/TK, dog; [13]): 373 ng/mL and 1.73 µM | Tmax at 35 day (Multiple dose PK/TK, dog; [13]): 8.5 to 9 h | AUC at 7 day (Multiple dose PK/TK, dog; [14]): 1930 ng·h/mL and 8.92 µM·h | Cmax at 7 day (Multiple dose PK/TK, dog; [14]): 619 ng/mL and 2.86 µM | Tmax at 7 day (Multiple dose PK/TK, dog; [14]): 6.5 to 7 h | AUC at 35 day (Multiple dose PK/TK, dog; [15]): 1690 ng·h/mL and 7.85 µM·h | Cmax at 35 day (Multiple dose PK/TK, dog; [15]): 608 ng/mL and 2.81 µM | Tmax at 35 day (Multiple dose PK/TK, dog; [15]): 1 to 9 h | AUC (Multiple dose PK/TK, dog; [16]): 4530 ng·h/mL and 20.9 µM·h | Cmax (Multiple dose PK/TK, dog; [16]): 8.16 µM | Tmax (Multiple dose PK/TK, dog; [16]): 0.5 to 2 h | AUC (Multiple dose PK/TK, dog; [17]): 5260 ng·h/mL and 24.3 µM·h | Cmax (Multiple dose PK/TK, dog; [17]): 1910 ng/mL and 8.82 µM | Tmax (Multiple dose PK/TK, dog; [17]): 0.5 to 7 h | half-life ([1]; ferret, read-out: elimination half-life): < 5 h | AUC [1, 18]: 4000 ng·h/mL and 18.3 µM·h | Cmax [1, 18]: 590 ng/mL and 2.73 µM | Tmax [1, 18]: 0.25 to 1 h | half-life ([1]; male, ferret 4M, DMO16, single oral 10 mg/kg (46 μmol/kg), read-out: T½ (converted)): 3.98 ± 1.66 h
